Source: US10111819B2 (The Procter & Gamble Company, priority 2015, dated 2018)

Assays:
human TRPV1 receptor = biological target: T1, human TRPV1 receptor (Homo sapiens, UniProt Q8NER1, M315I/T336M); assay: FLIPR calcium flux, antagonists to CPC activation of TRPV1; type: cell-based; details: for Ca count CPC TRPV1 Receptor Antagonist / % inhibition of CPC activation: compound 1 mM (0.04% for extracts); for Ca count CPC TRPV1 Receptor Antagonist: 30 min preincubation, then CPC 100 uM; for inhibition at 1000 µM: read-out: % inhibition of CPC activation; for % inhibition of CPC activation: TRPV1, CPC 100 uM
T1 construct: expressed in transfected cells; host or cells: HEK-293
Experimental: HEK-293 (human embryonic kidney) cells stably transfected with human TRPV1 receptor (SEQ ID NO. 1) were grown in 15 ml growth medium [high glucose DMEM (Dulbecco's Modification of Eagle's Medium) supplemented with 10% FBS (fetal bovine serum)], 100 μg/ml Penicillin/streptomycin, 100 μg/ml G418] in a 75 Cm^2 flask for 3 days at 33° C. in a mammalian cell culture incubator set at 5% CO2. Cells were detached with addition of 10 ml of PBS (phosphate buffered saline) by hand shaking gently. Cells were transferred to a 50 ml tube and centrifuged at 850 rpm for 3 minutes to remove PBS. After centrifugation, a pellet of cells is formed in the bottom of the tube separating them from the supernatant solution. The supernatant was discarded and the cell pellet is suspended in 1 ml of fresh growth medium to which 5 μl (12.5 μg) of Fluo-4 AM (Molecular Probes, Inc.) calcium indicator was added and incubated for 30 min with gentle shaking. Fluo-4 AM is a fluorescent dye used for quantifying cellular Ca^2+ concentrations in the 100 nM to […] range. At the end of the 30 minutes, 45 ml of assay buffer [1×HBSS (Hank's Balanced Salt Solution), 20 mM HEPES (4-(2-Hydroxyethyl)-1-piperazineethanesulfonic acid)] was added to wash cells and the resulting combination is then centrifuged at 850 rpm for 3 minutes to remove excess buffer and Fluo-4 AM calcium indicator; following centrifugation the assay buffer was removed. The pelleted cells were re-suspended in 10 ml assay buffer and 90 μl aliquots (˜50,000 cells) per well delivered to a 96-well assay plate containing compounds (final concentration 1 mM for pure compounds, 0.04% for extracts) or buffer control and incubated at room temperature for 30 minutes. After 30 minutes, the plate was placed into a fluorometric imaging plate reader (FLIPR^TETRA from Molecular Devices) and basal fluorescence recorded (excitation wave length 488 nm and emission wave length 510 nm). The FLIPR assay is an accepted method for detecting changes in intracellular calcium concentration. […] For determining the direct effect of test compounds on TRPV1 receptor, fluorescence was measured immediately after addition of each compound.

[1] = concentration level where the cooling effect can be clearly recognized; cited from earlier work
human TRPA1 receptor = biological target: T2, human TRPA1 receptor (Homo sapiens, UniProt O75762, K186N/R3C/R58T); assay: FLIPR calcium flux, antagonists to CPC activation of TRPA1; type: cell-based; details: for % inhibition of CPC activation: TRPA1, CPC 100 uM; for % inhibition of CPC activation / Ca count CPC TRPA1 Receptor Antagonist: compound 1 mM (0.04% for extracts); for Ca count CPC TRPA1 Receptor Antagonist: 30 min preincubation, then CPC 100 uM; for inhibition at 1000 µM: read-out: % inhibition of CPC activation
T2 construct: expressed in transfected cells; host or cells: HEK-293
Experimental: HEK-293 (human embryonic kidney) cells stably transfected with human TRPA1 receptor (SEQ ID NO. 2) were grown in 15 ml growth medium [high glucose DMEM (Dulbecco's Modification of Eagle's Medium) supplemented with 10% FBS (fetal bovine serum)], 100 μg/ml Penicillin/streptomycin, 100 μg/ml G418] in a 75 Cm^2 flask for 3 days at 37° C. in a mammalian cell culture incubator set at 5% CO2. Cells were detached with addition of 10 ml of PBS (phosphate buffered saline) by gentle hand shaking. Cells were transferred to a 50 ml tube and centrifuged at 850 rpm for 3 minutes to remove PBS. After centrifugation, a pellet of cells was formed in the bottom of the tube separating them from the supernatant solution. The supernatant was discarded and the cell pellet suspended in 1 ml of fresh growth medium to which 5 μl (12.5 μg) of Fluo-4 AM (Molecular Probes, Inc., Grand Island, N.Y.) calcium indicator was added and incubated for 30 min with gentle shaking. Fluo-4 AM is a fluorescent dye used for quantifying cellular Ca^2+ concentrations in the 100 nM to 1 microM range. At the end of the 30 minutes, 45 ml of assay buffer [1×HBSS (Hank's Balanced Salt Solution), 20 mM HEPES (4-(2-Hydroxyethyl)-1-piperazineethanesulfonic acid)] was added to wash cells and the resulting combination was then centrifuged at 850 rpm for 3 minutes to remove excess buffer and Fluo-4 AM calcium indicator; following centrifugation the assay buffer was removed. The pellet cells were re-suspended in 10 ml assay buffer and 90 μl aliquots (˜50,000 cells) per well delivered to a 96-well assay plate containing compounds (final concentration 1 mM for pure compounds, 0.04% for extracts) or buffer control and incubated at room temperature for 30 minutes. After 30 minutes, the plate was placed into a fluorometric imaging plate reader (FLIPR^TETRA from Molecular Devices, Sunnyvale, Calif.) and basal fluorescence recorded (excitation wave length 488 nm and emission wave length 510 nm). The FLIPR assay is an accepted method for detecting changes in intracellular calcium concentration. […] For determining the direct effect of test compounds on TRPA1 receptor, fluorescence was measured immediately after addition of each compound.

T1 sequence (Q8NER1 whole entry M315I/T336M): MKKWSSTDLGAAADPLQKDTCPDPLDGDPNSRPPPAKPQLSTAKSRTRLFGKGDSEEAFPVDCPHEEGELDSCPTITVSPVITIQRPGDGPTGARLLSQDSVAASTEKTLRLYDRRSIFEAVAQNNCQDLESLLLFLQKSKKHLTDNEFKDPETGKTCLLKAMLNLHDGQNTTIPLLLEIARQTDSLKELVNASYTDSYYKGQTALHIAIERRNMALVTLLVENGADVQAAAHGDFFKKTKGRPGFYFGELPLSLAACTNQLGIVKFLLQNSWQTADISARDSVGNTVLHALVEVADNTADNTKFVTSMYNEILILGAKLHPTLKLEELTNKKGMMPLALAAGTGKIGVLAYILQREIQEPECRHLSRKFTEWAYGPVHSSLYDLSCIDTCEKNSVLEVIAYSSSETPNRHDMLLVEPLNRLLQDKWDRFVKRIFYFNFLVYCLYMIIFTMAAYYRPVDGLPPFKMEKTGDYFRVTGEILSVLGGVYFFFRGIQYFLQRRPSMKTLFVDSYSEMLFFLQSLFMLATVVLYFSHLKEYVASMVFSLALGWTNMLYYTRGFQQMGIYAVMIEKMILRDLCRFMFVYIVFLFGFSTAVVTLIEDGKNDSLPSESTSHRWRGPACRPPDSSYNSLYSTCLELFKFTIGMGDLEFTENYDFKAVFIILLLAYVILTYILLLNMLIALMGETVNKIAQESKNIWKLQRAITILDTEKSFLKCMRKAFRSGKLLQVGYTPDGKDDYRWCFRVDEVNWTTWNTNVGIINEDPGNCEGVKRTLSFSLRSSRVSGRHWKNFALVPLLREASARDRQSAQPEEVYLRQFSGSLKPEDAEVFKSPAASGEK
T2 sequence (O75762 whole entry R3C/R58T/K186N): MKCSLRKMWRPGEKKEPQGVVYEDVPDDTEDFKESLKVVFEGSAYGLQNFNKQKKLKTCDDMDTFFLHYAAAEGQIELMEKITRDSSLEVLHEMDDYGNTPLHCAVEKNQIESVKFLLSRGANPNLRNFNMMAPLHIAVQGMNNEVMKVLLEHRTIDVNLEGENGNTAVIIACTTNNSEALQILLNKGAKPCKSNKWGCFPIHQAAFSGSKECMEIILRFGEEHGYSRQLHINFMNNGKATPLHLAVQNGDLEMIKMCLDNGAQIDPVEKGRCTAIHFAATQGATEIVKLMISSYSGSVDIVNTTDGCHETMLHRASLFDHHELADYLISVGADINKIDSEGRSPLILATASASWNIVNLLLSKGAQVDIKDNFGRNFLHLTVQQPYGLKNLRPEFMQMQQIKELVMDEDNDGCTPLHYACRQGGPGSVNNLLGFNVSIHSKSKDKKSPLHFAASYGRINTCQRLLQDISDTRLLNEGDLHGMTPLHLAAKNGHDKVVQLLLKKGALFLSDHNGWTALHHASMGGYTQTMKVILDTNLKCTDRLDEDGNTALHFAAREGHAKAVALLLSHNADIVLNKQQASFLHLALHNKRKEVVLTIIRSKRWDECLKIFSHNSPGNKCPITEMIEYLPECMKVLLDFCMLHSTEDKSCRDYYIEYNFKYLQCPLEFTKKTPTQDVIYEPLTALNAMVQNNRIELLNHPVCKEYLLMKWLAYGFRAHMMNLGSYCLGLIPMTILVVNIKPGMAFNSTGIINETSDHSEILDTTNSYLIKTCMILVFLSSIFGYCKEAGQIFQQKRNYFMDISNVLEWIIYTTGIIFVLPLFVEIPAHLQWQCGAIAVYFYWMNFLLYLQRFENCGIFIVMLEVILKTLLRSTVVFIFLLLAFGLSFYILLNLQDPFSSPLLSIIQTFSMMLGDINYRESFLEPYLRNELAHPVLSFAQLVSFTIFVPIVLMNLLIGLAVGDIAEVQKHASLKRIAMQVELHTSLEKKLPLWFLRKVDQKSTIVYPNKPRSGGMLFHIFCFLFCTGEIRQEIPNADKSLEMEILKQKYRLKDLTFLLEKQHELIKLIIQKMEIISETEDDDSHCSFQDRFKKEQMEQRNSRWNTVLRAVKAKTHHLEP

| Compound | Ca count CPC TRPV1 Receptor Antagonist (human TRPV1 receptor) [count] | inhibition at 1000 µM (human TRPV1 receptor) [%] | Ca count CPC TRPA1 Receptor Antagonist (human TRPA1 receptor) [count] | also measured |
| --- | --- | --- | --- | --- |
| Nc1ccccc1C(=O)Oc1ccc2ccccc2c1 [2-Aminobenzoic Acid Naphthalen-2-Yl Ester] | 4172 | 38.3 | – | – |
| CCCCCC=CC(=O)O [2-Octenoic Acid, Predominantly Trans, 2-Octenoic Acid] | 2878 | 78.3 | – | – |
| CCCCCC=CC(C)=O [3-Nonen-2-one] | 3470 | 43.6 | – | – |
| CC(=O)CCc1ccc(O)cc1 [4-(4-Hydroxy-phenyl)-butan-2-one] | 1127 | 67.8 | – | – |
| COc1ccc(CCC(C)=O)cc1 [4-(4-Methoxyphenyl)-2-butanone] | 1218 | 55.2 | – | – |
| CCCC(=O)OC(C)(C)Cc1ccccc1 [Alpha,Alpha-Dimethylphenethyl Butyrate] | 4246 | 45.2 | – | – |
| CCCCOC(=O)C(C)C [Butyl Isobutyrate] | 1504 | 57 | – | – |
| CCCCCCCCCCOC(C)=O [Decyl Acetate] | 2079 | 60.2 | – | – |
| CC(C)[C@@H]1CC[C@@H](C)C[C@H]1O [L-menthol] | – | – | – | cooling threshold [1]: about 800 ppb |
| O=S(=O)([O-])[O-].[Mg+2] [Magnesium sulfate] | – | – | – | % inhibition of CPC activation (human TRPV1 receptor): 88.1% |
| Cc1occc(=O)c1OC(=O)C(C)C [Maltyl Isobutyrate] | – | – | 2882 | % inhibition of CPC activation (human TRPA1 receptor): 46.3% |
| COC(=O)CCCc1ccccc1 [Methyl 4-Phenylbutyrate] | 3469 | 43.6 | – | – |
| CC1(C)C2CC=C(CO)C1C2 (centres unmarked) [Myrtenol] | – | – | 440 | % inhibition of CPC activation (human TRPA1 receptor): 86.04%; % inhibition of CPC activation (human TRPA1 receptor; listed as myrtenol): 86% |
| CC1CCC(C(C)(C)S)C(=O)C1 (centres unmarked) [P-mentha-8-thiol-3-one] | – | – | 3513 | % inhibition of CPC activation (human TRPA1 receptor): 48.3% |
| CC(C)[C@@H]1CC[C@@H](C)C[C@@H]1O [Rinse 1-neomenthol, 1-neomenthol] | – | – | – | cooling threshold [1]: about 3,000 ppb |
| O=C(OC[C@H]1O[C@@H](OC(=O)c2cc(O)c(O)c(OC(=O)c3cc(O)c(O)c(O)c3)c2)[C@H](OC(=O)c2cc(O)c(O)c(OC(=O)c3cc(O)c(O)c(O)c3)c2)[C@@H](OC(=O)c2cc(O)c(O)c(OC(=O)c3cc(O)c(O)c(O)c3)c2)[C@@H]1OC(=O)c1cc(O)c(O)c(OC(=O)c2cc(O)c(O)c(O)c2)c1)c1cc(O)c(O)c(OC(=O)c2cc(O)c(O)c(O)c2)c1 [Tannic Acid] | – | – | 321 | inhibition at 1000 µM (human TRPA1 receptor): 95.3% |
| NCCc1ccc(O)cc1 [Uteramine] | 1093 | 68.8 | – | – |
| CC(=O)[O-].CC(=O)[O-].[Zn+2] [Zinc Acetate] | 1351 | – | – | % inhibition of CPC activation (human TRPV1 receptor): 89.8% |
| CC1=CCCC(C)(C)C1/C=C/C(C)O (stereo not drawn) [alpha-Ionol] | 2620 | – | – | % inhibition of CPC activation (human TRPV1 receptor): 66.2% |
| OC[C@H]1O[C@@H]2O[C@H]3[C@H](O)[C@@H](O)[C@@H](O[C@H]4[C@H](O)[C@@H](O)[C@@H](O[C@H]5[C@H](O)[C@@H](O)[C@@H](O[C@H]6[C@H](O)[C@@H](O)[C@@H](O[C@H]7[C@H](O)[C@@H](O)[C@@H](O[C@H]8[C@H](O)[C@@H](O)[C@@H](O[C@H]1[C@H](O)[C@H]2O)O[C@@H]8CO)O[C@@H]7CO)O[C@@H]6CO)O[C@@H]5CO)O[C@@H]4CO)O[C@@H]3CO [beta-Cyclodextrin] | – | – | 2324 | inhibition at 1000 µM (human TRPA1 receptor): 56.7% |
| CC1=C(/C=C/C(C)O)C(C)(C)CCC1 (stereo not drawn) [beta-Ionol] | 1265 | – | – | % inhibition of CPC activation (human TRPV1 receptor): 65.9% |
| CC(C)[C@@H]1CC[C@@H](C)C[C@@H]1O [d-neomenthol] | – | – | – | cooling threshold [1]: about 25,000 ppb |
| CCCOC(=O)c1cc(O)c(O)c(O)c1 [n-propyl gallate] | – | – | 1844 | inhibition at 1000 µM (human TRPA1 receptor): 65.6% |
| Manganese Citrate | – | – | 4553 | % inhibition of CPC activation (human TRPA1 receptor): 52.2% |
| Manganese Gluconate | – | – | 2234 | % inhibition of CPC activation (human TRPA1 receptor): 67.2% |
